Laboratory results published in the NIST ThermoML archive (doi:10.1021/acs.jced.8b00632).
± gives the expanded uncertainty stated by the source.

Experiments:
[1] = Molar enthalpy of transition or fusion; conditions: Crystal; DSC
[2] = Crystal; DTA

In the case of `O=C(Nc1ccc(F)cc1F)c1cccnc1Oc1cccc(C(F)(F)F)c1`, the “Molar enthalpy of transition or fusion” value [1] is reported as 39.4 ± 0.92 kJ/mol and the Normal melting temperature [2] is reported as 162.37 ± 0.61 °C.
